In general, IC50 refers to the concentration at which inhibition is half-maximal.

HCV RNA-dependent RNA polymerase NS5B (Δ21), sequence (P26663 2420-2989, stated change not applied): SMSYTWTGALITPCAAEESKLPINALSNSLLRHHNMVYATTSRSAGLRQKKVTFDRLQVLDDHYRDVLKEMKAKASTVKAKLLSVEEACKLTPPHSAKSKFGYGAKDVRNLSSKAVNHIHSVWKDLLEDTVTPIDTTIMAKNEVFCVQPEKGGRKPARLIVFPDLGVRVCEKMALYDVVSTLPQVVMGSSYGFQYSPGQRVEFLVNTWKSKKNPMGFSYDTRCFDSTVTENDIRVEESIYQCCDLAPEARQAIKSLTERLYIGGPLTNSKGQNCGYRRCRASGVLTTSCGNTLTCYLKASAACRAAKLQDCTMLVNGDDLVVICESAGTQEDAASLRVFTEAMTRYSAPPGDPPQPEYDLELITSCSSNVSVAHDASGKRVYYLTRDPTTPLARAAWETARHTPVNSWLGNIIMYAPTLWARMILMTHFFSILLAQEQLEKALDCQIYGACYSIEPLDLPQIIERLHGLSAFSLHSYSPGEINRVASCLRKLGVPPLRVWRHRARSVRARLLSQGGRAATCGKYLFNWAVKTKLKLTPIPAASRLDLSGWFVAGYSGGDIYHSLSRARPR

In one assay the target is HCV RNA-dependent RNA polymerase NS5B (Δ21) (Hepatitis C virus genotype 1b, UniProt P26663). The assay can be described thus: Assay for HCV RNA-dependent RNA polymerase activity (SPA, [3H]-GTP incorporation). It is filed as biochemical. The settings on record: read-out: Δ21 Activity (IC50 μM); 50 nM NS5B (Δ21), class symbols. In outline:
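NS5B (Δ21), 50 nM, was incubated 3 h at room temperature with biotinylated oligoG12/polyC template, 5 μM GTP plus [3H]-GTP, in HEPES pH 7.3 with MgCl2 and NaCl. [3H]-GTP incorporation was read by streptavidin SPA. IC50 came from single experiments across 11 two-fold dilutions (0.05–50 μM).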
For the compound `CCOC(=O)c1cc(C(=O)N[C@@H]2CCCC[C@@H]2OCc2ccccc2)n(CC(=O)N[C@H]2CCCC[C@H]2OCc2ccccc2)n1` [Compound 139], the 50% inhibitory concentration (IC50) was in the range of 0.1 to 1 µM. With `CON=Cc1cc(C(=O)N[C@H]2CCCC[C@@H]2OCc2ccccc2)n(CC(=O)N[C@H]2CCCC[C@@H]2OCc2ccccc2)n1` [Compound 162], the IC50 is 0.1 to 1 µM. Same read-out and setting: with `O=C(Cn1nc(C(=O)NCc2ccncc2)cc1C(=O)N[C@H]1CCCC[C@@H]1OCc1ccccc1)N[C@H]1CCCC[C@@H]1OCc1ccccc1` [Compound 138] the figure was 0.1 to 1 µM; with `O=C(Cn1nc(C(=O)N2c3ccccc3CCc3ccccc32)cc1C(=O)N[C@H]1CCCC[C@@H]1OCc1ccccc1)N[C@H]1CCCC[C@@H]1OCc1ccccc1` [Compound 119], 0.1 to 1 µM. As for `O=C(Cn1nc(C(=O)NCc2ccc(C(F)(F)F)cc2)cc1C(=O)N[C@H]1CCCC[C@@H]1OCc1ccccc1)N[C@H]1CCCC[C@@H]1OCc1ccccc1` [Compound 127], the IC50 is 0.1 to 1 µM.

In the case of `O=C(Cn1nc(NC(=O)NC2CCCCC2)cc1C(=O)N[C@H]1CCCC[C@@H]1OCc1ccccc1)N[C@H]1CCCC[C@@H]1OCc1ccccc1` [Compound 118], the IC50 fell in the range of 0.1 to 1 µM. Still for that read-out and setting: next, `CC(C)(C)ONC(=O)c1cc(C(=O)N[C@H]2CCCC[C@@H]2OCc2ccccc2)n(CC(=O)N[C@H]2CCCC[C@@H]2OCc2ccccc2)n1` [Compound 116]: 0.1 to 1 µM; `CCOC(=O)c1cc(C(=O)N[C@H]2CCCC[C@@H]2OCc2ccccc2)n(CS(=O)(=O)N[C@H]2CCCC[C@@H]2OCc2ccccc2)n1` [Compound 152]: 0.1 to 1 µM.

Turning to `O=C(Cn1nc(NS(=O)(=O)c2ccc(F)cc2F)cc1C(=O)N[C@H]1CCCC[C@@H]1OCc1ccccc1)N[C@H]1CCCC[C@@H]1OCc1ccccc1` [Compound 79], the 50% inhibitory concentration (IC50) is 0.1 to 1 µM. `O=C(Cn1nc(C(=O)NCc2cccs2)cc1C(=O)N[C@H]1CCCC[C@@H]1OCc1ccccc1)N[C@H]1CCCC[C@@H]1OCc1ccccc1` [Compound 92]: the IC50 was 0.1 to 1 µM. Still for that read-out and setting: next, `O=C(Cn1nc(C(=O)O)cc1C(=O)N[C@H]1CCCC[C@@H]1OCc1ccccc1)Nc1ncccc1Oc1ccccc1` [Compound 160]: 0.1 to 1 µM; `O=C(Cn1nc(C(=O)NCCc2ccccc2)cc1C(=O)N[C@H]1CCCC[C@@H]1OCc1ccccc1)N[C@H]1CCCC[C@@H]1OCc1ccccc1` [Compound 131]: 0.1 to 1 µM; `O=C(Cn1nc(C(=O)O)cc1C(=O)N[C@H]1CCCC[C@@H]1NCc1ccccc1)N[C@H]1CCCC[C@@H]1OCc1ccccc1` [Compound 120]: 0.1 to 1 µM. Same read-out and setting: next, `CCCONC(=O)c1cc(C(=O)N[C@H]2CCCC[C@@H]2OCc2ccccc2)n(CC(=O)N[C@H]2CCCC[C@@H]2OCc2ccccc2)n1` [Compound 164]: 0.1 to 1 µM; `O=C(Cn1nc(C(=O)NC2CCCCC2)cc1C(=O)N[C@H]1CCCC[C@@H]1OCc1ccccc1)N[C@H]1CCCC[C@@H]1OCc1ccccc1` [Compound 83]: 0.1 to 1 µM; `O=C(Cn1nc(C(=O)NCCc2ccc(Cl)cc2)cc1C(=O)N[C@H]1CCCC[C@@H]1OCc1ccccc1)N[C@H]1CCCC[C@@H]1OCc1ccccc1` [Compound 129]: 0.1 to 1 µM.

For `O=C(Cn1nccc1C(=O)N[C@H]1CCCC[C@@H]1OCc1ccccc1)N[C@H]1CCCC[C@@H]1OCc1ccccc1` [Compound 134], the half-inhibitory concentration (IC50) lay in the range of 0.1 to 1 µM. `CON(C)C(=O)c1cc(C(=O)N[C@H]2CCCC[C@@H]2OCc2ccccc2)n(CC(=O)N[C@H]2CCCC[C@@H]2OCc2ccccc2)n1` [Compound 109]: the 50% inhibitory concentration (IC50) was in the range of 0.1 to 1 µM.

As to `O=C(Cn1nc(C(=O)NCc2ccccc2)cc1C(=O)N[C@H]1CCCC[C@@H]1OCc1ccccc1)N[C@H]1CCCC[C@@H]1OCc1ccccc1` [Compound 50], the half-maximal inhibitory concentration (IC50) is 0.1 to 1 µM.

Regarding `O=C(Cn1nc(NC(=O)Nc2ccccc2)cc1C(=O)N[C@H]1CCCC[C@@H]1OCc1ccccc1)N[C@H]1CCCC[C@@H]1OCc1ccccc1` [Compound 102], the 50% inhibitory concentration (IC50) fell in the range of 0.1 to 1 µM. Same read-out and setting: with `O=C(Cn1nc(NS(=O)(=O)Cc2ccccc2)cc1C(=O)N[C@H]1CCCC[C@@H]1OCc1ccccc1)N[C@H]1CCCC[C@@H]1OCc1ccccc1` [Compound 84] the figure was 0.1 to 1 µM. On the same count and under the same terms, with `CN(Cc1cccc2ccccc12)C(=O)c1cc(C(=O)N[C@H]2CCCC[C@@H]2OCc2ccccc2)n(CC(=O)N[C@H]2CCCC[C@@H]2OCc2ccccc2)n1` [Compound 130] the figure was 0.1 to 1 µM; with `O=C(Cn1nc(NS(=O)(=O)c2cc(Cl)cc(Cl)c2O)cc1C(=O)N[C@H]1CCCC[C@@H]1OCc1ccccc1)N[C@H]1CCCC[C@@H]1OCc1ccccc1` [Compound 108], 0.1 to 1 µM.

The same assay, now with this note: Δ21 Activity (IC50 μM), 50 nM NS5B (Δ21), class symbols.
In the case of `O=C(Cn1nc(NS(=O)(=O)c2ccc3ccccc3c2)cc1C(=O)N[C@H]1CCCC[C@@H]1OCc1ccccc1)N[C@H]1CCCC[C@@H]1OCc1ccccc1` [Compound 33], the IC50 lay within 0.05 to 0.1 µM.

`O=C(Cn1nc(C(=O)O)cc1C(=O)Nc1cc(C(F)(F)F)ccc1OCc1ccccc1)N[C@H]1CCCC[C@@H]1OCc1ccccc1` [Compound 14] registered an IC50 of less than 0.05 µM. The same measure, in the same setting: with `CCOC(=O)c1cc(C(=O)N[C@H]2CCCC[C@@H]2OCc2ccccc2)n(CC(=O)N(C)[C@H]2CCCC[C@@H]2OCc2ccccc2)n1` [Compound 178] the figure was more than 1 µM; with `COc1ccc(NC(=O)c2cc(C(=O)O)nn2CC(=O)N[C@H]2CCCC[C@@H]2OCc2ccccc2)c(OCc2ccccc2)c1` [Compound 201], more than 1 µM. Same read-out and setting: with `N#CNC(=O)c1cc(C(=O)Nc2ccccc2OCc2ccccc2)n(CC(=O)N[C@H]2CCCC[C@@H]2OCc2ccccc2)n1` [Compound 6] the figure was less than 0.05 µM. The same measure, in the same setting: next, `O=C(Cn1nc(C(=O)Nc2ccccc2-c2ccccc2)cc1C(=O)N[C@H]1CCCC[C@@H]1OCc1ccccc1)N[C@H]1CCCC[C@@H]1OCc1ccccc1` [Compound 179]: more than 1 µM. In turn, `CCCCC(CC)CNC(=O)c1cc(C(=O)N[C@H]2CCCC[C@@H]2OCc2ccccc2)n(CC(=O)N[C@H]2CCCC[C@@H]2OCc2ccccc2)n1` (some centres unmarked) [Compound 194] had an IC50 of more than 1 µM. With `Cc1cc(Oc2ccccc2NC(=O)Cn2nc(C(=O)O)cc2C(=O)N[C@H]2CCCC[C@@H]2OCc2ccccc2)ccc1Cl` [Compound 23], the 50% inhibitory concentration (IC50) was 0.05 to 0.1 µM. The same measure, in the same setting: next, `Cc1ccc(OCc2ccsc2)c(NC(=O)c2cc(C(=O)O)nn2CC(=O)N[C@H]2CCCC[C@@H]2OCc2ccccc2)c1` [Compound 8]: less than 0.05 µM; `CCOC(=O)c1cc(C(=O)N[C@H]2CCCC[C@@H]2OCc2ccccc2)n(CC(=O)Nc2cc(C)ccc2OCC2CCC2)n1` [Compound 206]: more than 1 µM. Same read-out and setting: next, `O=C(Cn1nc(C(=O)NCc2cccc3ccccc23)cc1C(=O)N[C@H]1CCCC[C@@H]1OCc1ccccc1)N[C@H]1CCCC[C@@H]1OCc1ccccc1` [Compound 22]: 0.05 to 0.1 µM; `CC(C)NC(=O)c1cc(C(=O)N[C@H]2CCCC[C@@H]2OCc2ccccc2)n(CC(=O)N[C@H]2CCCC[C@@H]2OCc2ccccc2)n1` [Compound 163]: more than 1 µM; `CCOC(CCCNC(=O)c1cc(C(=O)N[C@H]2CCCC[C@@H]2OCc2ccccc2)n(CC(=O)NC2CCCC[C@@H]2OCc2ccccc2)n1)OCC` (some centres unmarked) [Compound 195]: more than 1 µM.

Still in this assay, the particulars now being: Δ21 Activity (IC50 μM), 50 nM NS5B (Δ21), numeric values.
Compound `O=C(Cn1nc(C(=O)O)cc1C(=O)Nc1cc(Br)ccc1OCC1CCCCC1)N[C@H]1CCCC[C@@H]1OCc1ccccc1` [drawing 251] yielded an IC50 of 0.037 µM. The same measure, in the same setting: next, `C[C@@H](NC(=O)c1cc(C(=O)N[C@H]2CCCC[C@@H]2OCc2ccccc2)n(CC(=O)N[C@H]2CCCC[C@@H]2OCc2ccccc2)n1)c1cccc2ccccc12` [drawing 246]: 0.15 µM.

For the origin of these results see US7425640B2, “Substituted 5-carboxyamide pyrazoles and [1,2,4]triazoles as antiviral agents” (priority 2004, dated 2008).
